Source: PubChem BioAssay (NCI)
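In this assay, cells in 96-well plates receive the compound at five concentrations for 48 hours. Endpoints are linearly interpolated between the surrounding concentrations. GI50 is the concentration that inhibits growth by half. TGI is the concentration that stops growth completely.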

How the values were obtained:
Test in all cases: NCI tumour cell line growth inhibition, 48 h
786-0 renal = system: 786-0 renal
A498 renal = system: A498 renal
A549 NSCLC = system: A549 NSCLC
ACHN renal = system: ACHN renal
BT-549 breast = system: BT-549 breast
CAKI-1 renal = system: CAKI-1 renal
CCRF-CEM leukemia = system: CCRF-CEM leukemia
COLO 205 colon = system: COLO 205 colon
DU-145 prostate = system: DU-145 prostate
EKVX NSCLC = system: EKVX NSCLC
HCC-2998 colon = system: HCC-2998 colon
HCT-116 colon = system: HCT-116 colon
HCT-15 colon = system: HCT-15 colon
HL-60(TB) leukemia = system: HL-60(TB) leukemia
HOP-62 NSCLC = system: HOP-62 NSCLC
HS 578T breast = system: HS 578T breast
HT29 colon = system: HT29 colon
IGROV1 ovarian = system: IGROV1 ovarian
K-562 leukemia = system: K-562 leukemia
KM12 colon = system: KM12 colon
LOX IMVI melanoma = system: LOX IMVI melanoma
M14 melanoma = system: M14 melanoma
MALME-3M melanoma = system: MALME-3M melanoma
MCF7 breast = system: MCF7 breast
MDA-MB-231 breast = system: MDA-MB-231 breast
MDA-MB-435 = system: MDA-MB-435
MOLT-4 leukemia = system: MOLT-4 leukemia
NCI-H226 lung = system: NCI-H226 lung

O=C(NCc1ncc[nH]1)c1ccc(-c2nc3ccc4[nH]ncc4c3c3c2CCCC3)cc1
GI50 (786-0 renal): 1.97 µM
TGI (786-0 renal): 12.1 µM
GI50 (A498 renal): 0.958 µM
TGI (A498 renal): 4.38 µM
GI50 (A549 NSCLC): 8.04 µM
TGI (A549 NSCLC): > 50 µM
GI50 (ACHN renal): 1.6 µM
TGI (ACHN renal): > 50 µM
GI50 (BT-549 breast): 0.957 µM
TGI (BT-549 breast): 5.48 µM
GI50 (CAKI-1 renal): 1.08 µM
TGI (CAKI-1 renal): 4.8 µM
GI50 (CCRF-CEM leukemia): 1.29 µM
TGI (CCRF-CEM leukemia): > 50 µM
GI50 (COLO 205 colon): 1.12 µM
TGI (COLO 205 colon): 3.44 µM
GI50 (DU-145 prostate): 2.17 µM
TGI (DU-145 prostate): > 50 µM
GI50 (EKVX NSCLC): 2.86 µM
TGI (EKVX NSCLC): 24.2 µM
GI50 (HCC-2998 colon): 1.94 µM
TGI (HCC-2998 colon): 8.73 µM
GI50 (HCT-116 colon): 0.58 µM
TGI (HCT-116 colon): > 50 µM
GI50 (HCT-15 colon): 6.28 µM
TGI (HCT-15 colon): > 50 µM
GI50 (HL-60(TB) leukemia): 1.64 µM
TGI (HL-60(TB) leukemia): 8.98 µM
GI50 (HOP-62 NSCLC): 1.5 µM
TGI (HOP-62 NSCLC): 9.57 µM
GI50 (HS 578T breast): 1.25 µM
TGI (HS 578T breast): 7.65 µM
GI50 (HT29 colon): 2.66 µM
TGI (HT29 colon): > 50 µM
GI50 (IGROV1 ovarian): 0.818 µM
TGI (IGROV1 ovarian): 7.64 µM
GI50 (K-562 leukemia): 2.02 µM
TGI (K-562 leukemia): > 50 µM
GI50 (KM12 colon): 1.61 µM
TGI (KM12 colon): 9.87 µM
GI50 (LOX IMVI melanoma): 1.46 µM
TGI (LOX IMVI melanoma): 6.73 µM
GI50 (M14 melanoma): 1.43 µM
TGI (M14 melanoma): 7.44 µM
GI50 (MALME-3M melanoma): 1.31 µM
TGI (MALME-3M melanoma): 3.67 µM
GI50 (MCF7 breast): 1.17 µM
TGI (MCF7 breast): 6.76 µM
GI50 (MDA-MB-231 breast): 1.84 µM
TGI (MDA-MB-231 breast): 10.9 µM
GI50 (MDA-MB-435): 1.66 µM
TGI (MDA-MB-435): 7.05 µM
GI50 (MOLT-4 leukemia): 1.51 µM
TGI (MOLT-4 leukemia): 16.8 µM
GI50 (NCI-H226 lung): 1.4 µM
TGI (NCI-H226 lung): 17.3 µM
